# What was measured:
# breast cancer cells = settings: non-patent literature 5; cited from earlier work
# [1] = test system: gastric tumor of K19-Wnt1/C2mE mice; test: Spontaneous gastric cancer model mice, tumor size by X-ray CT; format: in vivo, mouse; settings: for sizes of tumors by X-ray CT (relative mean tumor area, FIG. 3): per os 3 mg/kg and 30 mg/kg once a day for five weeks, vs vehicle
# Protocol: Among human gastric cancer patients, Wnt up-regulation is observed in 30% to 50%, and induction of COX-2 is observed in more than 70%. Therefore, the K19-Wnt1/C2mE is positioned as a mouse model which extrapolates human gastric cancer in terms of molecular mechanism (Nature Review Cancer, Volume 7, Pages 645-658, 2007).
# The experiment was conducted using five spontaneous gastric cancer model mice at 50 weeks old (K19-Wnt1/C2mE mice). The mice develop large tumors in stomach at 50 weeks old, and the size of tumor can be measured with X-ray CT. The sizes of tumors were measured with X-ray CT before administration and at week 1, week 2, and week 3 after administration, and the sizes of tumors were compared. Compound A was continuously administered at a dose of 100 mg/kg twice a day for three weeks. A methyl cellulose was used as a vehicle.
# Experiment was conducted using six gastric cancer model mice at 46 to 68 weeks old (K19-Wnt1/C2mE mice). Compound B was continuously administered per os at a dose of 3 mg/kg (n=2), 30 mg/kg (n=2) and vehicle control (n=2) once a day for five weeks. The measurements of tumor sizes were conducted in the same manner as example 1. It was confirmed by X-ray CT scanning that the sizes of tumors increased in a time-dependent manner during test period in two vehicle controls. […] In the FIG. 3, a relative value of the mean tumor area after treatment to that before treatment (0 w) set to 100 is shown with time. Solid square (▪) and solid diamond (♦) represent control model mice. Dotted triangle (▴) and dotted cross (X) represent model mice each administered compound B at a dose of 3 mg/kg. Solid star (*) and solid circle (●) represent model mice each administered compound B at a dose of 30 mg/kg.
# [2] = test system: LL/2 (cell line derived from mouse lung cancer); test: LL/2 subcutaneously implanted to C57BL/6 mice, tumor weight; format: in vivo; settings: vs vehicle
# Protocol: A cell line derived from mouse lung cancer, LL/2, was subcutaneously implanted to C57BL/6 mice. (According to the method described in Cancer Research. Volume 58, Pages 2583-2587, 1998, this model extrapolates the lung cancer development and growth.) When the mean tumor weight reached 100 mg, vehicle (n=10), compound B once a day at a dose of 0.3 mg/kg (n=10), or compound C twice a day at a dose of 10 mg/kg (n=10) was administered for 25 days. The tumor weight was calculated as (major axis)×(minor axis)^2×0.5 using the measured values. […] In FIG. 5, solid square (▪), solid triangle (▴), and solid circle (●) represent a group administered vehicle (control), a group administered compound B, and a group administered compound C, respectively.
# [3] = test system: colon26 (cell line derived from mouse colon cancer); test: colon26 subcutaneously implanted to CD2F1 mice, tumor weight; format: in vivo; settings: vs vehicle
# Protocol: A cell line derived from mouse colon cancer, colon26, was subcutaneously implanted to CD2F1 mice. (According to the method described in Int. J. Cancer, Volume 121, Pages 878-883, 2007, this model extrapolates the colon cancer development and growth in terms of molecular mechanism.) When the mean tumor weight reached 100 mg, vehicle (n=10), compound B once a day at a dose of 30 mg/kg (n=10), or compound C twice a day at a dose of 200 mg/kg (n=10) was administered for 20 days. The tumor weight was calculated as (major axis)×(minor axis)^2×0.5 using the measured values. […] In FIG. 4, solid square (▪), solid triangle (▴), and solid circle (●) represent a group administered vehicle (control), a group administered compound B, and a group administered compound C, respectively.
# [4] = test system: colon cancer cell (HCA-7); settings: non-patent literature 4; cited from earlier work
# [5] = test system: azoxymethane-induced colon aberrant crypt foci; settings: non-patent literature 6; cited from earlier work
# [6] = test system: intestinal polyp in APC gene knockout mice; settings: non-patent literature 6; cited from earlier work
smiles,measurement,setting,value
O=C(O)CC/C=C\CC[C@H]1[C@H](N2CCOCC2)C(=O)C[C@H]1OCc1ccc(-c2ccccc2)cc1 [AH23848],metastasis of breast cancer cells,breast cancer cells,metastasis suppression
"C[C@H](NC(=O)c1cc(Cl)ccc1Oc1ccc(F)cc1)c1ccc(C(=O)O)cc1 [Compound A, 4-((1S)-1-{[5-chloro-2-(4-fluorophenoxy)benzoyl]amino}ethyl)benzoic Acid]",histological analysis of excised tissues after the treatment,"[1]; 100 mg/kg twice a day for three weeks, visual observation",disappearance of irregular glandular branching in tumor epithelium
same,relative tumor volume compared with untreated mice (FIG. 2),"[1]; 100 mg/kg twice a day for three weeks, vs 55 to 60 week old untreated K19-Wnt1/C2mE mice (n=7)",tumor was shrunk effectively
same,tumor mass in CT images at three weeks post-administration,"[1]; 100 mg/kg twice a day, all the five mice",tumor mass almost completely disappeared
same,tumor size in the first week (X-ray CT),"[1]; 100 mg/kg twice a day, two individuals with particularly large tumor before administration",remarkable reductions of the tumor size
C[C@H](NC(=O)c1cc(Cl)cnc1Oc1cccc(F)c1)c1ccc(C(=O)O)cc1 [Compound B],"sizes of tumors by X-ray CT (relative mean tumor area, FIG. 3)",[1],reduced in a dose-dependent manner
same,tumor size by X-ray CT at a dose of 3 mg/kg,[1]; per os 3 mg/kg once a day for five weeks,effective reduction of tumor size
same,tumor lesions in autopsy,"[1]; per os once a day for five weeks, compared with vehicle control group",remarkable shrinkages of tumor lesions
same,"tumor size (calculated tumor weight, FIG. 5)",[2]; 0.3 mg/kg once a day for 25 days,Remarkable reductions of tumor size
same,"tumor size (calculated tumor weight, FIG. 4)",[3]; 30 mg/kg once a day for 20 days,Remarkable reductions of tumor size
"CCc1nc2c(C)nc(C)cc2n1-c1ccc(CCNC(=O)NS(=O)(=O)c2ccc(C)cc2)cc1 [Compound C, 3-[2-(4-{2-ethyl-4,6-dimethyl-1H-imidazo[4,5-c]pyridin-1-yl}phenyl)ethyl]-1-[(4-methylbenzene)sulfonyl]urea]","sizes of tumors by X-ray CT (relative mean tumor area, FIG. 3)",[1],tumor size dramatically reduced
same,"tumor size (calculated tumor weight, FIG. 5)",[2]; 10 mg/kg twice a day for 25 days,Remarkable reductions of tumor size
same,"tumor size (calculated tumor weight, FIG. 4)",[3]; 200 mg/kg twice a day for 20 days,Remarkable reductions of tumor size
"CCCCc1nn(-c2ccccc2C(F)(F)F)c(=O)n1Cc1ccc(-c2ccccc2S(=O)(=O)NC(=O)c2sccc2C)cc1 [L-161,982]",growth of colon cancer cell,[4],growth inhibition
CC(C(=O)Nc1ccccc1Cc1ccccc1C(=O)O)c1cccc2ccccc12 (centres unmarked) [ONO-AE2-227],formation of azoxymethane-induced colon aberrant crypt foci,[5],reduced formation
same,formation of intestinal polyp,[6],reduced formation of intestinal polyp
CC(C(=O)Nc1cc(C#N)ccc1CCCC(=O)O)c1ccc(F)c2ccccc12 (centres unmarked) [ONO-AE3-208],metastasis of breast cancer cells,breast cancer cells,metastasis suppression
